From patent publication US11787780B2 (CORCEPT THERAPEUTICS INCORPORATED, priority 2020, dated 2023)

test system: induction of TAT by dexamethasone in HepG2 cells; experiment: Hep G2 TAT assay (inhibition of dexamethasone-induced TAT); type: cell-based, human; details: challenge of 100 nM dexamethasone, IC50 converted to Ki by Cheng and Prusoff equation
Description: Glucocorticoid mediated activation of TAT occurs by transactivation of glucocorticoid response elements in the TAT promoter by glucocorticoid receptor-agonist complex. The following protocol describes an assay for measuring induction of TAT by dexamethasone in HepG2 cells (a human liver hepatocellular carcinoma cell line; ECACC, UK).
TAT activity was measured as outlined in the literature by A. Ah et al., J. Med. Chem., 2004, 47, 2441-2452.
HepG2 cells were cultured using MEME media supplemented with 10% (v/v) foetal bovine serum; 2 mM L-glutamine and 1% (v/v) NEAA at 37° C., 5%/95% (v/v) CO2/air. The HepG2 cells were counted and adjusted to yield a density of 0.125×10^6 cells/ml in RPMI 1640 without phenol red, 10% (v/v) charcoal stripped FBS, 2 mM L-glutamine and seeded at 25,000 cells/well in 200 μl into 96 well, sterile, tissue culture micro titre plates, and incubated at 37° C., 5% CO2 for 24 hours
Growth media was removed and replaced with assay media {RPMI 1640 without phenol red, 2 mM L-glutamine+10 μM forskolin}. Test compounds were screened against a challenge of 100 nM dexamethasone. Compounds were serially half log diluted in 100% (v/v) dimethylsulphoxide from a 10 mM stock.
Test compounds were pre-incubated with cells in micro-titre plates for 30 minutes at 37° C., 5/95 (v/v) CO2/air, before the addition of 100 nM dexamethasone and then subsequently for 20 hours to allow optimal TAT induction.
HepG2 cells were then lysed with 30 μl of cell lysis buffer containing a protease inhibitor cocktail for 15 minutes at 4° C. […] After 2 hours incubation at 37° C. the reaction was terminated by the addition of 15 μl of 10M aqueous potassium hydroxide solution, and the plates incubated for a further 30 minutes at 37° C. The TAT activity product was measured by absorbance at λ 340 nm.
[compound] and fitting the data to a 4 parameter logistic equation. IC50 values were converted to Ki (equilibrium dissociation constant) using the Cheng and Prusoff equation, assuming the antagonists were competitive inhibitors with respect to dexamethasone.

Compared with `Cc1cc2c(cnn2-c2ccc(F)cc2)cc1C1(Cc2ccccc2)CCN(C(=O)c2cnn(C)c2)C1` (centres unmarked) [Example 19, (3-benzyl-3-(1-(4-fluorophenyl)-6-methyl-1H-indazol-5-yl)pyrrolidin-1-yl)(1-methyl-1H-pyrazol-4-yl)methanone], `Cc1cc2c(cnn2-c2ccc(F)cc2)cc1C1(Cc2ccccc2)CCN(C(=O)c2ccnnc2)C1` (centres unmarked) [Example 195, (3-benzyl-3-(1-(4-fluorophenyl)-6-methyl-1H-indazol-5-yl)pyrrolidin-1-yl)(pyridazin-4-yl)methanone] is 2-fold lower in Ki: 0.142 µM for the first, 0.07 µM for the second.

`CCCn1cc(S(=O)(=O)N2CCC(c3cc4cnn(-c5ccc(F)cc5)c4cc3C)C(C)C2)cn1` (centres unmarked) [Example 26, 1-(4-fluorophenyl)-6-methyl-5-(3-methyl-1-((1-propyl-1H-pyrazol-4-yl)sulfonyl)piperidin-4-yl)-1H-indazole] and `CCCn1cc(S(=O)(=O)N2CCN(c3cc4cnn(-c5ccc(F)cc5)c4cc3C)[C@@H](C)C2)cn1` [Example 87] are within 1.5-fold of each other in Ki: 0.05 µM for the first, 0.042 µM for the second.

Compared with `CCCn1cc(S(=O)(=O)N2CCC3(c4cc5cnn(-c6ccc(F)cc6)c5cc4C)C(C2)C3(F)F)cn1` (centres unmarked) [Example 27, 5-(7,7-difluoro-3-((1-propyl-1H-pyrazol-4-yl)sulfonyl)-3-azabicyclo[4.1.0]heptan-6-yl)-1-(4-fluorophenyl)-6-methyl-1H-indazole], `C#CCC1(c2cc3cnn(-c4ccc(F)cc4)c3cc2C)CCN(S(=O)(=O)c2cnn(CCC)c2)C1` (centres unmarked) [Example 186] is 21-fold lower in Ki: 0.759 µM for the first, 0.037 µM for the second. The second binds more tightly here.

`CCCn1cc(N(C)S(=O)(=O)C2CCN(c3cc4cnn(-c5ccc(F)cc5)c4cc3C)C2)cn1` (centres unmarked) [Example 30, 1-(1-(4-fluorophenyl)-6-methyl-1H-indazol-5-yl)-N-methyl-N-(1-propyl-1H-pyrazol-4-yl)pyrrolidine-3-sulfonamide] and `CCCn1cc(S(=O)(=O)N(C)C2(C)CCN(c3cc4cnn(-c5ccc(F)cc5)c4cc3C)C2)cn1` (centres unmarked) [Example 119] are within 1.5-fold of each other in Ki: 0.206 µM for the first, 0.251 µM for the second.

First: COCCn1cc(S(=O)(=O)N2CCN(c3cc4cnn(-c5ccc(F)cc5)c4cc3C)CC23CC3)cn1 [Example 78]
Second: CCCn1cc(S(=O)(=O)N2CCN(c3cc(C)c4c(cnn4-c4ccc(F)cc4)c3)CC23CC3)cn1 [Example 80]
The Ki of the first is 7.7-fold lower: 0.07 µM for the first, 0.536 µM for the second. The first binds more tightly here.

First: Cc1cc2c(cnn2-c2ccc(F)cc2)cc1N1CCN(S(=O)(=O)c2cnn(C3CCOC3)c2)C2(CC2)C1 (centres unmarked) [Example 79]
Second: Cc1cc2c(cnn2-c2ccc(F)cc2)cc1N1C[C@@H]2CN(S(=O)(=O)c3cnn(C)c3)C[C@@H]2C1 [Example 92]
The Ki of the first is 5.9-fold lower: 0.084 µM for the first, 0.495 µM for the second.

`CCCn1cc(S(=O)(=O)N2C[C@H](C)N(c3cc4cnn(-c5ccc(F)cc5)c4cc3C)C[C@@H]2C)cn1` [Example 81] and `CCCn1cc(S(=O)(=O)N2C[C@H](C)N(c3cc4cnn(-c5ccc(F)cc5)c4cc3C)C[C@H]2C)cn1` [Example 82] are within 1.5-fold of each other in Ki: 0.058 µM for the first, 0.065 µM for the second.

Compared with `CCCn1cc(S(=O)(=O)N2C[C@H]3CN(c4cc5cnn(-c6ccc(F)cc6)c5cc4C)C[C@H]3C2)cn1` [Example 93], `CCCn1cc(S(=O)(=O)N2CCC(c3cc4cnn(-c5ccc(F)cc5)c4cc3Cl)CC2)cn1` [Example 140] is 4.3-fold lower in Ki: 0.216 µM for the first, 0.05 µM for the second. The second binds more tightly here.

First: CCCn1cc(S(=O)(=O)N(C)[C@H]2CCN(c3cc4cnn(-c5ccc(F)cc5)c4cc3OC)C2)cn1 [Example 118]
Second: CCCn1cc(S(=O)(=O)N2CCC(Cc3ccccc3)(c3ccc4c(cnn4-c4ccc(F)cc4)c3)C2)cn1 (centres unmarked) [Example 159]
The Ki of the first is 16-fold higher: 1.64 µM for the first, 0.101 µM for the second. The second binds more tightly here.

Compared with `CCCn1cc(S(=O)(=O)N2CC=C(c3cc4cnn(-c5cccc(C(=O)NC6CCOC6)c5)c4cc3C)CC2)cn1` (centres unmarked) [Example 145], `Cc1cc2c(cnn2-c2cccc(C(=O)NC3CCOC3)c2)cc1C1=CCN(S(C)(=O)=O)CC1` (centres unmarked) [Example 146] is 4.5-fold higher in Ki: 0.208 µM for the first, 0.942 µM for the second. The first binds more tightly here.

Compared with `CS(=O)(=O)N1CCC(Cc2ccccc2)(c2ccc3c(cnn3-c3ccc(F)cc3)c2)C1` (centres unmarked) [Example 157], `Cn1cc(S(=O)(=O)N2CCC(Cc3ccccc3)(c3ccc4c(cnn4-c4ccc(F)cc4)c3)C2)cn1` (centres unmarked) [Example 158] is 1.6-fold lower in Ki: 0.257 µM for the first, 0.161 µM for the second.

First: Cc1cc2c(cnn2-c2ccc(F)cc2)cc1C1(Cc2cncs2)CCN(S(=O)(=O)c2cnn(C)c2)C1 (centres unmarked) [Example 179]
Second: Cc1cc2c(cnn2-c2ccc(F)cc2)cc1C1(Cc2nccs2)CCN(S(=O)(=O)c2cnn(C)c2)C1 (centres unmarked) [Example 188]
The Ki of the first is 1.9-fold higher: 0.331 µM for the first, 0.173 µM for the second.

Going from `Cc1cc2c(cnn2-c2ccc(F)cc2)cc1C1(Cc2cncs2)CCN(S(C)(=O)=O)C1` (centres unmarked) [Example 180] to `Cc1cc2c(cnn2-c2ccc(F)cc2)cc1C1(Cc2nccs2)CCN(S(C)(=O)=O)C1` (centres unmarked) [Example 187], the Ki falls from 0.809 µM to 0.199 µM (4.1-fold). The second binds more tightly here.

Going from `CS(=O)(=O)N1CCC(Cc2ccccc2)(c2cc3cnn(-c4ccc(F)cc4)c3cc2F)C1` (centres unmarked) [Example 181] to `Cc1cc2c(cnn2-c2ccc(F)cc2)cc1C1(Cc2ccccc2)CCN(S(=O)(=O)c2cn(C)cn2)C1` (centres unmarked) [Example 210, 5-(3-benzyl-1-((1-methyl-1H-imidazol-4-yl)sulfonyl)pyrrolidin-3-yl)-1-(4-fluorophenyl)-6-methyl-1H-indazole], the Ki falls from 0.165 µM to 0.041 µM (4-fold). The second binds more tightly here.

`Cc1cc2c(cnn2-c2ccc(F)cc2)cc1C1(Cc2ccc3c(c2)nnn3C)CCN(S(C)(=O)=O)C1` (centres unmarked) [Example 183] and `C#CCC1(c2cc3cnn(-c4ccc(F)cc4)c3cc2C)CCN(S(C)(=O)=O)C1` (centres unmarked) [Example 184] are within 1.5-fold of each other in Ki: 0.182 µM for the first, 0.252 µM for the second.

Compared with `C#CCC1(c2cc3cnn(-c4ccc(F)cc4)c3cc2C)CCN(S(=O)(=O)c2cnn(C)c2)C1` (centres unmarked) [Example 185], `Cc1cc2c(cnn2-c2ccc(F)cc2)cc1C1(CC#Cc2ccccc2)CCN(S(=O)(=O)c2cnn(C)c2)C1` (centres unmarked) [Example 211, 1-(4-fluorophenyl)-6-methyl-5-(1-((1-methyl-1H-pyrazol-4-yl)sulfonyl)-3-(3-phenylprop-2-yn-1-yl)pyrrolidin-3-yl)-1H-indazole] is 3.5-fold lower in Ki: 0.164 µM for the first, 0.047 µM for the second. The second binds more tightly here.

Compared with `Cc1cc2c(cnn2-c2ccc(F)cc2)cc1C1(Cc2ccccc2)CCN(C(=O)c2cncnc2)C1` (centres unmarked) [Example 196, (3-benzyl-3-(1-(4-fluorophenyl)-6-methyl-1H-indazol-5-yl)pyrrolidin-1-yl)(pyrimidin-5-yl)methanone], `Cc1cc2c(cnn2-c2ccc(F)cc2)cc1C1(Cc2ccccc2)CCN(C(=O)c2ccsc2)C1` (centres unmarked) [Example 203, (3-benzyl-3-(1-(4-fluorophenyl)-6-methyl-1H-indazol-5-yl)pyrrolidin-1-yl)(thiophen-3-yl)methanone] is 3.8-fold lower in Ki: 0.079 µM for the first, 0.021 µM for the second.

Compared with `Cc1cc(CC(=O)N2CCC(Cc3ccccc3)(c3cc4cnn(-c5ccc(F)cc5)c4cc3C)C2)on1` (centres unmarked) [Example 197, 1-(3-benzyl-3-(1-(4-fluorophenyl)-6-methyl-1H-indazol-5-yl)pyrrolidin-1-yl)-2-(3-methylisoxazol-5-yl)ethan-1-one], `Cc1cc2c(cnn2-c2ccc(F)cc2)cc1C1(Cc2ccccc2)CCN(C(=O)Cc2noc3ccccc23)C1` (centres unmarked) [Example 198, 2-(benzo[d]isoxazol-3-yl)-1-(3-benzyl-3-(1-(4-fluorophenyl)-6-methyl-1H-indazol-5-yl)pyrrolidin-1-yl)ethan-1-one] is 2.2-fold lower in Ki: 0.065 µM for the first, 0.03 µM for the second.

`COc1cc(OCCCC(=O)N2CCC(Cc3ccccc3)(c3cc4cnn(-c5ccc(F)cc5)c4cc3C)C2)ccc1CO` (centres unmarked) [Example 199, 1-(3-benzyl-3-(1-(4-fluorophenyl)-6-methyl-1H-indazol-5-yl)pyrrolidin-1-yl)-4-(4-(hydroxymethyl)-3-methoxyphenoxy)butan-1-one] and `COc1ccccc1-c1noc(CCC(=O)N2CCC(Cc3ccccc3)(c3cc4cnn(-c5ccc(F)cc5)c4cc3C)C2)n1` (centres unmarked) [Example 201, 1-(3-benzyl-3-(1-(4-fluorophenyl)-6-methyl-1H-indazol-5-yl)pyrrolidin-1-yl)-3-(3-(2-methoxyphenyl)-1,2,4-oxadiazol-5-yl)propan-1-one] are within 1.5-fold of each other in Ki: 0.033 µM for the first, 0.048 µM for the second.

`Cc1cc2c(cnn2-c2ccc(F)cc2)cc1C1(Cc2ccccc2)CCN(C(=O)c2cc(CO)ccn2)C1` (centres unmarked) [Example 200, (3-benzyl-3-(1-(4-fluorophenyl)-6-methyl-1H-indazol-5-yl)pyrrolidin-1-yl)(4-(hydroxymethyl)pyridin-2-yl)methanone] and `Cc1cc2c(cnn2-c2ccc(F)cc2)cc1C1(Cc2ccccc2)CCN(C(=O)Cc2csc3ccccc23)C1` (centres unmarked) [Example 202, 2-(benzo[b]thiophen-3-yl)-1-(3-benzyl-3-(1-(4-fluorophenyl)-6-methyl-1H-indazol-5-yl)pyrrolidin-1-yl)ethan-1-one] are within 1.5-fold of each other in Ki: 0.059 µM for the first, 0.067 µM for the second.

In the case of `COc1cc2c(cnn2-c2ccc(F)cc2)cc1C1(Cc2ccc(F)cc2)CCN(S(=O)(=O)c2cn(C)cn2)C1` (centres unmarked) [Example 216, 5-(3-(4-fluorobenzyl)-1-((1-methyl-1H-imidazol-4-yl)sulfonyl)pyrrolidin-3-yl)-1-(4-fluorophenyl)-6-methoxy-1H-indazole], the Ki is reported as 0.053 µM.
